Laboratory results: patent publication US4221909A, “P-Acetamidobenzoic acid salts of 9-(hydroxyalkyl) purines” (Sloan-Kettering Institute for Cancer Research, priority 1978, dated 1980)

Key:
herpes hominis type 2 = test: Anti-Herpes Activity (Plaque Assay); assay type: cell-based; conditions: concentrations less than 100 μg/ml
From the text: The infection of tissue culture cells by Herpes virus causes cell lysis. After a period of time these lysed cells are visualized as a tiny clear area (plaque) on a layer of cells. The incorporation of a test substance into the media will reduce the number of plaques if it is capable of preventing virus replication. The method is as follows:
There was employed herpes hominis type 2 purchased from American Type Culture Collection (ATCC), Bethesda, Md., ATCC #VR 540, Lot 3D. The lyophilized viral suspension was reconstituted with 1 ml sterile distilled H2 O. The virus was passed twice through HeLa-cell monolayers. The tissue-culture supernates were pooled, dispensed in 1-ml aliquots, and stored at -70° C.
Vero cells in log-growth phase were subcultured at a concentration of 1×10^5 cells/ml in 50-ml Falcon flasks in Eagle's Minimum Essential Medium (MEM), supplemented with 10% fetal calf serum (FCS) and antibiotics. Media were changed the day following planting. […]
Agarose was prepared at a concentration of 6% w/v in 50 ml PBS. […] In addition, a 1:10 dilution of pooled human anti-herpes sera was readied. […]
Plaques were counted either directly by transmitted fluorescent light and macroviewing, or by the use of light microscopy for microplaques. Microplaques were counted by averaging three fields per experimental group under 150× magnification.

Phase solubility studies = assay type: physicochemical; conditions: constant pH
From the text: This is indicative of an interaction occuring in solution to yield a complex.

For CCCCCC[C@H]([C@H](C)O)n1cnc2c(=O)[nH]cnc21 (relative stereo) [NPT 15392, Erythro-9-(2-Hydroxy-3-Nonyl)Hypoxanthine], the “reduction of plaque formation caused by Herpes Simplex virus” value (herpes hominis type 2) was greater than 90% and the “solubility at increasing concentrations of DIP.PAcBA” value (Phase solubility studies) was “increased solubility”.
